Reference: patent US6087358A (priority 1997, dated 2000)
Values after ≈ are worked out from the molar mass of the structure shown. Like-named read-outs stand apart in the source and are kept apart here.

Assays:
[1] = test system: Mycobacterium bovis (rBCG-lux); assay: microbe, parasite or virus in culture; format: cell-based, Mycobacterium bovis bacille Calmette Guerin; conditions: Mycobacterium tuberculosis variant bovis, 72 h; read-out: % of control, measured in RLUs
Helicobacter pylori = assay: In vitro inhibition of Helicobacter pylori (broth microdilution MIC); conditions: for MICs of control drugs relative to expected values: H. pylori ATCC 43; for MIC: Helicobacter pylori
[2] = test system: M. tuberculosis H37 Rv in human THP-1 macrophages; assay: In vitro activity against M. tuberculosis in human macrophages (luciferase bioluminescence); format: cell-based, Mycobacterium tuberculosis, in human THP-1 cells
[3] = test system: Mycobacterium bovis BCG (recombinant strain); assay: microbe, parasite or virus in culture; format: cell-based; conditions: Mycobacterium tuberculosis variant bovis BCG, BCG, 144 h; 6 days 37° C.; read-out: MIC, column A, 3(S) compounds
[4] = test system: Clostridium difficile ATCC 17857; assay: In vitro inhibition of Clostridium difficile (Oxyrase broth microdilution MIC); format: cell-based; conditions: Clostridioides difficile, ATCC17857; Clostridium difficile ATCC 17857, Oxyrase broth; read-out: MIC, column D, 3(S) compounds
[5] = 72 h, read-out: MIC against Helicobacter pylori, strain 17 (Table 5A)
[6] = 72 h, read-out: MIC against Helicobacter pylori, strain 19 (Table 5A)
[7] = 72 h, read-out: MIC against Helicobacter pylori, strain 20 (Table 5A)
[8] = 72 h, read-out: MIC against Helicobacter pylori, strain 40 (Table 5A)
[9] = 72 h, read-out: MIC against Helicobacter pylori, strain 43 (Table 5A)
[10] = 72 h, read-out: MIC against Helicobacter pylori, strain 76 (Table 5A)
[11] = ATCC43504, 72 h, read-out: MIC against Helicobacter pylori, strain ATCC 43504 (Table 5A)

NCC[C@H](O)C(=O)N[C@@H]1C[C@H](N)[C@@H](O[C@H]2O[C@H](CN)[C@@H](O)[C@H](O)[C@H]2O)[C@H](O)[C@H]1O[C@H]1O[C@H](CO)[C@@H](O)[C@H](N)[C@H]1O [Amikacin]
activity at 0.15 µg/mL [1]: 52.9%
activity at 0.31 µg/mL [1]: 31.7%
activity at 0.62 µg/mL [1]: 18.9%
activity at 1.25 µg/mL [1]: 18.1%
activity at 2.5 µg/mL [1]: 10.7%
activity at 5 µg/mL [1]: 5.2%

CC1(C)S[C@@H]2[C@H](NC(=O)[C@H](N)c3ccc(O)cc3)C(=O)N2[C@H]1C(=O)O [Amoxicillin, reference compound]
MICs of control drugs relative to expected values (Helicobacter pylori): within the expected values
MIC (Helicobacter pylori; [5]): 0.016 µg/mL (≈ 0.0438 µM)
MIC (Helicobacter pylori; [6]): 0.016 µg/mL (≈ 0.0438 µM)
MIC (Helicobacter pylori; [7]): 0.032 µg/mL (≈ 0.0876 µM)
MIC (Helicobacter pylori; [8]): 0.032 µg/mL (≈ 0.0876 µM)
MIC (Helicobacter pylori; [9]): 0.016 µg/mL (≈ 0.0438 µM)
MIC (Helicobacter pylori; [10]): 0.032 µg/mL (≈ 0.0876 µM)
MIC (Helicobacter pylori; [11]): 0.06 µg/mL (≈ 0.164 µM)

CC[C@@H](CO)NCCN[C@@H](CC)CO [Ethambutol]
activity at 0.15 µg/mL [1]: 179%
activity at 0.31 µg/mL [1]: 152%
activity at 0.62 µg/mL [1]: 98.8%
activity at 1.25 µg/mL [1]: 148%
activity at 2.5 µg/mL [1]: 54.8%
activity at 5 µg/mL [1]: 53.1%

NNC(=O)c1ccncc1 [Isoniazid, reference compound]
activity at 0.15 µg/mL [1]: 158%
activity at 0.31 µg/mL [1]: 122%
activity at 0.62 µg/mL [1]: 110%
activity at 1.25 µg/mL [1]: 51.1%
activity at 2.5 µg/mL [1]: 34.1%
activity at 5 µg/mL [1]: 11.4%
RLU values ([2]; 0.03 μg/mL, day 1): 20360 RLU
RLU values ([2]; 0.03 μg/mL, day 2): 61355 RLU
RLU values ([2]; 0.03 μg/mL, day 3): 89528 RLU
RLU values ([2]; 0.03 μg/mL, day 4): 68253 RLU
RLU values ([2]; 0.03 μg/mL, day 7): 89032 RLU
RLU values ([2]; 0.06 μg/mL, day 1): 32192 RLU
RLU values ([2]; 0.06 μg/mL, day 2): 36680 RLU
RLU values ([2]; 0.06 μg/mL, day 3): 40344 RLU
RLU values ([2]; 0.06 μg/mL, day 4): 27408 RLU
RLU values ([2]; 0.06 μg/mL, day 7): 15855 RLU
RLU values ([2]; 0.13 μg/mL, day 1): 31113 RLU
RLU values ([2]; 0.13 μg/mL, day 2): 33898 RLU
RLU values ([2]; 0.13 μg/mL, day 3): 36634 RLU
RLU values ([2]; 0.13 μg/mL, day 4): 25282 RLU
RLU values ([2]; 0.13 μg/mL, day 7): 13373 RLU

Cc1ncc([N+](=O)[O-])n1CCO [Metronidazole, reference compound]
MICs of control drugs relative to expected values (Helicobacter pylori): within the expected values
MIC (Helicobacter pylori; [5]): 32 µg/mL (≈ 187 µM)
MIC (Helicobacter pylori; [6]): 0.25 µg/mL (≈ 1.46 µM)
MIC (Helicobacter pylori; [7]): 1 µg/mL (≈ 5.84 µM)
MIC (Helicobacter pylori; [8]): 0.25 µg/mL (≈ 1.46 µM)
MIC (Helicobacter pylori; [9]): 0.032 µg/mL (≈ 0.187 µM)
MIC (Helicobacter pylori; [10]): 32 µg/mL (≈ 187 µM)
MIC (Helicobacter pylori; 72 h, read-out: MIC against Helicobacter pylori, strain B40, Met-S, Clar-S (Table 5B)): < 0.5 µg/mL
MIC (Helicobacter pylori; 72 h, read-out: MIC against Helicobacter pylori, strain B76, Met-R, Clar-S (Table 5B)): 8 µg/mL (≈ 46.7 µM)
MIC (Helicobacter pylori; 72 h, read-out: MIC against Helicobacter pylori, strain C1649, Met-R, Clar-R (Table 5B)): 16 µg/mL (≈ 93.5 µM)
MIC (Helicobacter pylori; 72 h, read-out: MIC against Helicobacter pylori, strain C11403, Met-S, Clar-R (Table 5B)): < 0.5 µg/mL
MIC (Helicobacter pylori; 72 h, read-out: MIC against Helicobacter pylori, strain C19765 (Table 5B)): 8 µg/mL (≈ 46.7 µM)
MIC (Helicobacter pylori; 72 h, read-out: MIC against Helicobacter pylori, strain RD26, Met-S, Clar-S (Table 5B)): 1 µg/mL (≈ 5.84 µM)
MIC (Helicobacter pylori; 72 h, read-out: MIC against Helicobacter pylori, strain rd26, Met-S, Clar-S (Table 5B)): 1 µg/mL (≈ 5.84 µM)
MIC (Helicobacter pylori; [11]): 128 µg/mL (≈ 748 µM)
MIC (Helicobacter pylori; ATCC43504, 72 h, read-out: MIC against Helicobacter pylori, strain ATCC 43504, Met-R, Clar-S (Table 5B)): 128 to 256 µg/mL (≈ 748 to 1500 µM)
MIC (Helicobacter pylori; ATCC43526, 72 h, read-out: MIC against Helicobacter pylori, strain ATCC 43526, Met-R, Clar-S (Table 5B)): 16 µg/mL (≈ 93.5 µM)
MIC (Helicobacter pylori; ATCC43579, 72 h, read-out: MIC against Helicobacter pylori, strain ATCC 43579, Met-S, Clar-S (Table 5B)): 2 µg/mL (≈ 11.7 µM)
MIC (Helicobacter pylori; ATCC43629, 72 h, read-out: MIC against Helicobacter pylori, strain ATCC 43629, Met-S, Clar-S (Table 5B)): < 0.5 µg/mL

CCCCCCCCO[C@@H]1COc2nc([N+](=O)[O-])cn2C1 [PA-602, 3S n-Octyloxy-6-nitro-2H-3,4-dihydro-[2-1b]imidazopyran]
MIC [3]: < 5 µg/mL
MIC [4]: 3.12 µg/mL (≈ 10.5 µM)

O=[N+]([O-])c1cn2c(n1)OC[C@@H](OCc1ccc(C(F)(F)F)cc1C(F)(F)F)C2 [PA-646]
MIC [3]: < 5 µg/mL
MIC [4]: 3.12 µg/mL (≈ 7.59 µM)

O=[N+]([O-])c1cn2c(n1)OC[C@@H](OCc1ccccc1)C2 [PA-651]
MIC [3]: > 5 µg/mL
MIC [4]: 3.12 µg/mL (≈ 11.3 µM)

O=[N+]([O-])c1cn2c(n1)OC[C@@H](OCc1c(F)c(F)c(F)c(F)c1F)C2 [PA-652]
MIC [3]: > 5 µg/mL
MIC [4]: 3.12 µg/mL (≈ 8.54 µM)

O=[N+]([O-])c1cn2c(n1)OC[C@@H](OCc1ccc(F)cc1F)C2 [PA-654]
MIC [3]: > 5 µg/mL
MIC [4]: 3.12 µg/mL (≈ 10 µM)
